The structures appear in SMILES notation.

On to `Cc1ccc(NC(=O)Nc2cnc3ccc(-c4cc(C)c(O)c(C)c4)cc3n2)cc1` [Compound 46, 1-[7-(4-Hydroxy-3,5-dimethylphenyl)quinoxalin-2-yl]-3-p-tolylurea], for which the melting point is above 300 °C.

For the molecule `CCCNC(=S)Nc1cnc2ccc(-c3cc(Cl)c(O)c(Cl)c3)cc2n1` [Compound 89, 1-[7-(3,5-Dichloro-4-hydroxy-phenyl)-quinoxalin-2-yl]-3-propyl-thiourea], the melting point was 237 to 239 °C. With `CCNC(=S)Nc1cnc2ccc(-c3cc(Cl)c(O)c(Cl)c3)cc2n1` [Compound 88, 1-[7-(3,5-Dichloro-4-hydroxy-phenyl)-quinoxalin-2-yl]-3-ethyl-thiourea] the figure was 237 to 238 °C. The molecule `COc1ccc(NC(=O)Nc2cnc3ccc(-c4cc(C)c(O)c(C)c4)cc3n2)cc1` [Compound 48, 1-[7-(4-Hydroxy-3,5-dimethylphenyl)quinoxalin-2-yl]-3-(4-methoxy-phenyl)urea] had a melting point above 300 °C.

Turning to `CC(C)NC(=S)Nc1cnc2ccc(-c3cc(Cl)c(O)c(Cl)c3)cc2n1` [Compound 91, 1-[7-(3,5-Dichloro-4-hydroxy-phenyl)-quinoxalin-2-yl]-3-isopropyl-thiourea], the melting point is 276 to 278 °C. Molecule `Cc1cc(-c2ccc3ncc(NC(=S)NC(C)(C)C)nc3c2)cc(C)c1O` [Compound 25, 1-tert-Butyl-3-[7-(4-hydroxy-3,5-dimethylphenyl)quinoxalin-2-yl]thiourea] returned a melting point of 238 to 240 °C. With `Cc1cc(-c2ccc3ncc(NC(=O)NC(C)(C)CC(C)(C)C)nc3c2)cc(C)c1O` [Compound 51, 1-[7-(4-Hydroxy-3,5-dimethylphenyl)quinoxalin-2-yl]-3-(1,1,3,3-tetra-methylbutyl)urea] the figure was above 300 °C; with `CCCCCCCNC(=O)Nc1cnc2ccc(-c3cc(Cl)c(O)c(Cl)c3)cc2n1` [Compound 75, 1-[7-(3,5-Dichloro-4-hydroxy-phenyl)-quinoxalin-2-yl]-3-heptyl-urea], 289 to 291 °C; with `Oc1c(Cl)cc(-c2ccc3ncc(NC(=S)NC4CCCCC4)nc3c2)cc1Cl` [Compound 21, 1-Cyclohexyl-3-[7-(3,5-dichloro-4-hydroxyphenyl)quinoxalin-2-yl]-thiourea], 284 °C. For `CCNC(=O)Nc1cnc2ccc(-c3cc(C)c(O)c(C)c3)cc2n1` [Compound 19, 1-Ethyl-3-[7-(4-hydroxy-3,5-dimethylphenyl)quinoxalin-2-yl]urea], the melting point is 257 °C. Molecule `Oc1c(Cl)cc(-c2ccc3ncc(NC(=S)NC4CCCCCC4)nc3c2)cc1Cl` [Compound 92, 1-Cycloheptyl-3-[7-(3,5-dichloro-4-hydroxy-phenyl)-quinoxalin-2-yl]-thiourea] registered a melting point of 281 to 283 °C.

`O=C(NCCCc1ccccc1)Nc1cnc2ccc(-c3cc(Cl)c(O)c(Cl)c3)cc2n1` [Compound 84, 1-[7-(3,5-Dichloro-4-hydroxy-phenyl)-quinoxalin-2-yl]-3-(3-phenyl-propyl)-urea]: the melting point was 271 to 274 °C. Regarding `Cc1cc(-c2ccc3ncc(NC(=O)N[C@H](C)C(C)C)nc3c2)cc(C)c1O` [Compound 53, 1-((R)-1,2-Dimethylpropyl)-3-[7-(4-hydroxy-3,5-dimethylphenyl)-quinoxalin-2-yl]urea], the melting point is 265 °C.

`Cc1cc(-c2ccc3ncc(NC(=O)Nc4ccc5ccccc5c4)nc3c2)cc(C)c1O` [Compound 50, 1-[7-(4-Hydroxy-3,5-dimethylphenyl)quinoxalin-2-yl]-3-naphthalen-2-ylurea]: the melting point was above 300 °C. Next, `CC(C)(C)NC(=O)Nc1cnc2ccc(-c3cc(Cl)c(O)c(Cl)c3)cc2n1` [Compound 77, 1-tert-Butyl-3-[7-(3,5-dichloro-4-hydroxy-phenyl)-quinoxalin-2-yl]-urea]: 292 to 295 °C; `O=C(Nc1ccccc1)Nc1cnc2ccc(-c3cc(Cl)c(O)c(Cl)c3)cc2n1` [Compound 86, 1-[7-(3,5-Dichloro-4-hydroxy-phenyl)-quinoxalin-2-yl]-3-phenyl-urea]: above 300 °C; `Cc1cc(-c2ccc3ncc(NC(=O)Nc4ccc(Cl)c(Cl)c4)nc3c2)cc(C)c1O` [Compound 47, 1-(3,4-Dichlorophenyl)-3-[7-(4-hydroxy-3,5-dimethylphenyl)quinoxalin-2-yl]urea]: above 300 °C. In turn, `CCCCCNC(=O)Nc1cnc2ccc(-c3cc(Cl)c(O)c(Cl)c3)cc2n1` [Compound 71, 1-[7-(3,5-Dichloro-4-hydroxy-phenyl)-quinoxalin-2-yl]-3-pentyl-urea] returned a melting point of 297 to 298 °C. In turn, `Cc1cc(-c2ccc3ncc(NC(=O)Nc4cccnc4)nc3c2)cc(C)c1O` [Compound 52, 1-[7-(4-Hydroxy-3,5-dimethylphenyl)quinoxalin-2-yl]-3-pyridin-3-ylurea] returned a melting point of 298 to 300 °C. Molecule `Cc1cc(-c2ccc3ncc(NC(=S)NC4CCCC4)nc3c2)cc(C)c1O` [Compound 24, 1-Cyclopentyl-3-[7-(4-hydroxy-3,5-dimethylphenyl)quinoxalin-2-yl]-thiourea] returned a melting point of 271 to 272 °C. Next, `CCCCCCNC(=O)Nc1cnc2ccc(-c3cc(C)c(O)c(C)c3)cc2n1` [Compound 35, 1-Hexyl-3-[7-(4-hydroxy-3,5-dimethylphenyl)quinoxalin-2-yl]urea]: 272 to 273 °C. Molecule `CC(C)NC(=O)Nc1cnc2ccc(-c3cc(Cl)c(O)c(Cl)c3)cc2n1` [Compound 76, 1-[7-(3,5-Dichloro-4-hydroxy-phenyl)-quinoxalin-2-yl]-3-isopropyl-urea] returned a melting point of 298 to 300 °C. Consider `CC(C)NC(=O)Nc1cnc2ccc(-c3ccc(O)c(Cl)c3)cc2n1` [Compound 95, 1-[7-(3-Chloro-4-hydroxy-phenyl)-quinoxalin-2-yl]-3-isopropyl-urea], for which the melting point was in the range of 275 to 277 °C.

The molecule `CNC(=O)Nc1cnc2ccc(-c3cc(C)c(O)c(C)c3)cc2n1` [Compound 16, 1-[7-(4-Hydroxy-3,5-dimethylphenyl)quinoxalin-2-yl]-3-methylurea] gave a melting point of 251 °C. Regarding `CCCCCNC(=O)Nc1cnc2ccc(-c3cc(C)c(O)c(C)c3)cc2n1` [Compound 33, 1-[7-(4-Hydroxy-3,5-dimethylphenyl)quinoxalin-2-yl]-3-pentylurea], the melting point is 274 to 275 °C. In the case of `O=C(Nc1cnc2ccc(-c3cc(Cl)c(O)c(Cl)c3)cc2n1)NC1CCCC1` [Compound 81, 1-Cyclopentyl-3-[7-(3,5-dichloro-4-hydroxy-phenyl)-quinoxalin-2-yl]-urea], the melting point fell in the range of 295 to 296 °C. With `Cc1cc(-c2ccc3ncc(NC(=O)N[C@@H](C)C(C)C)nc3c2)cc(C)c1O` [Compound 54, 1-((S)-1,2-Dimethylpropyl)-3-[7-(4-hydroxy-3,5-dimethylphenyl)-quinoxalin-2-yl]urea] the figure was 267 °C.

One may read the melting point as the temperature of the solid-liquid transition.

For the origin of these results see patent US8394801B2, “Quinoxaline derivatives and their use for treating benign and malignant tumour disorders” (Aeterna Zentaris GmbH, priority 2009, dated 2013).
